Assay results taken from PubChem BioAssay (NCI).
Values joined by “and” are separate entries in the source; they are usually repeats but may differ in a detail not shown here. Equal values may be shown once.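 Test compounds were applied to cells in 96-well plates for 48 hours at 5 doses. GI50 marks 50% less growth. TGI denotes the concentration required for complete inhibition of growth.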

Assays:
Assay in all cases: NCI tumour cell line growth inhibition, 48 h
[1] = system: SK-MEL-28 melanoma
[2] = system: PC-3 prostate
[3] = system: M14 melanoma
[4] = system: HCC-2998 colon
[5] = system: CCRF-CEM leukemia
[6] = system: HL-60(TB) leukemia
[7] = system: A549 NSCLC
[8] = system: T-47D breast
[9] = system: ACHN renal
[10] = system: A498 renal

Compound	GI50 [1]	TGI [1]	GI50 [2]	TGI [2]	GI50 [3]	TGI [3]	GI50 [4]	TGI [4]	GI50 [5]	TGI [5]	GI50 [6]	TGI [6]	GI50 [7]	TGI [7]	GI50 [8]	TGI [8]	GI50 [9]	TGI [9]	GI50 [10]	TGI [10]
CCOC(=O)/C=C/C1=C(c2cccs2)c2ccccc2CC1	26.3 µM	75 µM	37.1 µM	> 100 µM	32 µM	> 100 µM	28.2 µM	64.7 µM	27.3 µM	73.1 µM	45 µM	> 100 µM	33.8 µM	> 100 µM	36.5 µM	> 100 µM	17.1 µM	34.5 µM	36.9 µM	> 100 µM
CCn1c2ccc(O)cc2c2c(C)c3c[n+](C)ccc3c(C)c21	2.83 µM	16 µM	15.2 µM	> 100 µM	4.4 µM	29.2 µM	3.9 µM	23.4 µM	5.7 µM	> 100 µM	40.8 µM	> 100 µM	3.81 µM	> 100 µM	0.435 µM	4.13 µM	8.85 µM	> 100 µM	3.71 µM	59.4 µM
COc1cc2ncnc(Nc3ccc(F)c(Cl)c3)c2cc1NC(=O)/C=C/CN1CCCCC1	1.79 µM and 1.65 µM	3.36 µM and 3.14 µM	2.53 µM and 2.78 µM	10.5 µM and > 10 µM	1.72 µM and 1.61 µM	3.4 µM and 3.26 µM	1.97 µM and 1.75 µM	4.38 µM and 4.29 µM	1.01 µM and 2.03 µM	5.7 µM and 8 µM	1.65 µM and 0.814 µM	3.64 µM and 3.11 µM	1.27 µM and 1.65 µM	3.71 µM and > 8.03 µM	0.381 µM and 0.0625 µM	3.67 µM and 4.9 µM	< 0.01 µM and 0.00256 µM	1.76 µM and 1.48 µM	0.812 µM and 0.556 µM	4.04 µM and 3.71 µM
Cc1sc2nc3c4ccccc4c(NCCCN(C)C)nn3c(=O)c2c1C	1.73 µM	3.21 µM	11.5 µM	24.2 µM	1.77 µM	3.22 µM	7.88 µM	20.7 µM	6.13 µM	17.2 µM	9.98 µM	25.8 µM	2.52 µM	20.4 µM	12.7 µM	26.1 µM	6.95 µM	20.4 µM	4.49 µM	20.2 µM
COc1ccc(-c2ccc(-c3ccc(C(=N)N)cn3)o2)cc1	8.23 µM	20.9 µM	4.18 µM	18 µM	2.12 µM	4.68 µM	2.45 µM	5.71 µM	3.2 µM	13.7 µM	2.14 µM	5.7 µM	5.1 µM	18.7 µM	5.13 µM	21 µM	6.56 µM	19.6 µM	12.8 µM	26.3 µM
COc1ccccc1/C=C/C(=O)c1ccccc1	16.6 µM	30.8 µM	5.65 µM	28 µM	12.2 µM	27 µM	17 µM	31.8 µM	2.87 µM	11.5 µM	2.18 µM	20.9 µM	17.9 µM	38.8 µM	16.8 µM	63.3 µM	5.04 µM	15.2 µM	16.3 µM	31 µM
Cc1cc2c(cc1Cl)SC1=NN(C)C(N(C)C)N1S2(=O)=O (centres undefined)	> 100 µM	> 100 µM	> 100 µM	> 100 µM	> 100 µM	> 100 µM	> 100 µM	> 100 µM	> 100 µM	> 100 µM	> 100 µM	> 100 µM	> 100 µM	> 100 µM	> 100 µM	> 100 µM	> 100 µM	> 100 µM	63.4 µM	> 100 µM
COc1cc(-c2cn(-c3ccc(Cl)c(Cl)c3)c(=O)n2C(C)=O)cc(OC)c1OC	11.6 µM	29.6 µM	4.3 µM	17.8 µM	16.7 µM	45.7 µM	14.9 µM	29.8 µM	16.1 µM	59.9 µM	14.2 µM	33.9 µM	15 µM	41 µM	18.4 µM	48.1 µM	10.4 µM	30.5 µM	16.6 µM	32.1 µM
COc1ccc(C2=NN(C=O)C(c3cccc(Nc4ccnc5cc(Cl)ccc45)c3)C2)cc1 (centres undefined)	8.12 µM	25.3 µM	2.87 µM	> 100 µM	2.34 µM	15.9 µM	11.7 µM	94.3 µM	2.14 µM	13.1 µM	2.03 µM	4.91 µM	4.63 µM	> 100 µM	1.39 µM	21 µM	4.59 µM	62.7 µM	1.35 µM	9.26 µM
CCCOc1ccc2nc(NC(=O)OC)[nH]c2c1	0.285 µM	> 100 µM	0.269 µM	> 100 µM	0.14 µM	> 100 µM	0.232 µM		0.273 µM	> 100 µM	0.171 µM	0.681 µM	0.337 µM	> 100 µM	> 100 µM	> 100 µM	1.2 µM	> 100 µM	0.162 µM	1.46 µM
Cn1c2c(c3ccc(Cl)c(Cl)c31)C(C#N)C1(CCNCC1)NC2=O (centres undefined)	0.841 µM	2.37 µM	1.55 µM	4.99 µM	1.54 µM	3.3 µM	1.31 µM	2.69 µM	1.93 µM	4.72 µM	1.96 µM	3.91 µM	2.42 µM	7.89 µM	1.72 µM	3.94 µM	1.82 µM	5.79 µM	1.24 µM	2.95 µM
COc1ccc(Cn2c3c(cc(OS(=O)(=O)C(F)(F)F)c2=O)Cc2ccccc2-3)cc1	22.8 µM	50 µM and > 100 µM	26.7 µM	> 100 µM	11.4 µM	15.4 µM and 30.8 µM		50 µM	3.95 µM	50 µM and > 100 µM	3.6 µM	46.2 µM and 17 µM	9.95 µM	50 µM and > 100 µM	16.6 µM	50 µM and > 100 µM	5.25 µM	50 µM and > 100 µM	> 100 µM	> 100 µM
CCC[n+]1cc2cc(OC)c(OC)cc2c2c1-c1cc3c(cc1C2)OCO3	3.03 µM	10.6 µM	4.7 µM	20.7 µM	7.64 µM	22 µM	3.99 µM	14.9 µM	2.53 µM		11 µM	> 54.1 µM	18.3 µM	35.5 µM	0.583 µM	3.92 µM	9.45 µM	36.7 µM	17.6 µM	50.9 µM
C/C=C1\NC(=O)[C@H]2CSSCCC=C[C@H](CC(=O)N[C@H](C(C)C)C(=O)N2)OC(=O)[C@H](C(C)C)NC1=O	< 0.01 µM	< 0.01 µM and 0.0175 µM and < 0.0122 µM	< 0.01 µM		< 0.01 µM	0.263 µM and 0.0826 µM and 0.206 µM	0.000813 µM	< 0.01 µM and 0.00448 µM	< 0.01 µM	0.273 µM and 0.0534 µM and 0.102 µM	< 0.01 µM and 0.000299 µM		< 0.01 µM	< 0.012 µM and 0.0205 µM and 0.0185 µM	< 0.01 µM	< 0.01 µM and 0.0103 µM	< 0.01 µM	0.0459 µM and 0.0364 µM	< 0.01 µM	< 0.01 µM and 0.000402 µM
COc1cc2c(=O)n(CCN)c3c4cc5c(cc4ccc3c2cc1OC)OCO5	2.09 µM	6.17 µM	0.591 µM	2.27 µM	0.425 µM	1.89 µM	1.08 µM	2.47 µM	0.182 µM		1.24 µM	3.53 µM	0.626 µM	2.36 µM	0.508 µM	16.8 µM	0.363 µM	1.52 µM	1.24 µM	2.64 µM
CCN(CC)C(=S)Oc1cc2oc(=O)cc(C)c2cc1Cl		> 100 µM		> 100 µM		> 100 µM		> 100 µM		> 100 µM		> 100 µM		> 100 µM		> 100 µM		> 100 µM		> 100 µM
Nc1ccc(C(=O)CC(N)C(=O)O)cc1O (centres undefined)		> 100 µM		> 100 µM		> 100 µM		> 100 µM		> 100 µM		> 100 µM		> 100 µM		> 100 µM		> 100 µM		> 100 µM
CNCCn1c(=O)c2cc(OC)c(OC)cc2c2ccc3cc4c(cc3c21)OCO4	0.555 µM	2.69 µM	0.109 µM	6.23 µM	0.0786 µM	0.399 µM	0.167 µM	0.968 µM	0.0203 µM	0.952 µM	0.173 µM	0.864 µM	0.116 µM	0.638 µM	0.0838 µM	3.43 µM	0.0822 µM	0.368 µM	0.126 µM	0.609 µM
OCCNc1ncnc2c1ncn2Cc1cccc(COc2cccc(OCc3cccc(Cn4cnc5c(NCCO)ncnc54)c3)c2)c1	14.6 µM	28.4 µM	14.5 µM	30.4 µM	17.2 µM	33.3 µM	15.1 µM	33.6 µM	11.3 µM	33.1 µM	10.6 µM	29.3 µM	24.9 µM	50.7 µM	16 µM	33.4 µM	20.7 µM	43.2 µM	14.9 µM	28.9 µM
